Laboratory results reported in patent EP4813979A1, “COMPOUND FOR EGFR PROTEIN DEGRADATION AND USE THEREOF” (TYK Medicines, Inc., priority 2023, dated 2025).

Tests used:
[1] = Pharmacokinetic tests in male SD rats; type: in vivo; conditions: oral gavage (po), 10 mg/kg, plasma
Description: Three healthy adult male SD rats, 6-8 weeks old, weighing 200-300 grams.
EDTA-Na2 anticoagulant, weighed 11.2 g EDTA-Na2 and placed it in a reagent bottle. Added 100 mL physiological saline and shaked to dissolve completely. After preparation, dispensed into 1.5 mL centrifuge tubes, each containing approximately 20 µL, for whole blood sample collection.
Accurately weighed approximately 10 mg the sample to be tested, added 10% of the converted total volume of DMSO to dissolve it, and then slowly added 90% of the total volume of 0.5% MC solvent while stirring. Sonicated and vortex to mix thoroughly to obtain a solution of the preparation that is considered to be homogeneous, with a concentration of 1 mg/mL. Prepared fresh immediately before use.
Piped 0.2 mL the sample into a 1.5 mL centrifuge tube and store at -80°C for analysis of the concentration of the drug solution.
Animals were housed in rat cages and fasted for at least 10 hours starting the day before the experiment, but water was allowed. On the day of the experiment, each animal was weighed and marked on its tail. Blank blood samples were collected before drug administration. Blood was collected via tail vein.
• Route of administration: Oral gavage (po); • Dosage concentration: 1 mg/ml; • Dosage: 10 mg/kg; • Dosage volume: 10 mL/kg; • Procedure: Hold the rat upright with your left hand wearing a bite-proof glove, insert the gavage needle into the throat through the mouth, and insert the needle when feeling no obvious resistance. Then inject the drug into the stomach.
Whole blood (0.1-0.2 ml) was collected from test animals at 0.5 h, 1 h, 2 h, 4 h, 6 h, 8 h, 12 h, and 24 h after drug administration. The samples were placed in EDTA-Na 2 anticoagulant tubes, inverted 3-4 times to mix, and centrifuged at 4°C, 2000 g for 5 min to separate the supernatant plasma. The plasma was promptly transferred to -80°C for storage until analysis. Blood was collected via tail vein.
A quantitative detection method for the analyte was established using Shimadzu liquid chromatography and Triple Quad™ 6500+AB mass spectrometry. The concentration of the parent drug in plasma was analyzed. The analytical results were controlled for variation using quality control samples, with the accuracy of the quality control samples expected to be between 80% and 120%.
The main pharmacokinetic parameters were calculated using a non-compartmental model in Winnonlin Phoenix software. These parameters included the area under the curve (AUC(0-t) and AUC(0-∞)), elimination half-life (T1/2), maximum plasma concentration (Cmax ), and time to reach maximum plasma concentration (Tmax).The results are shown in Table 3.

[2] = test system: PC-9; experiment: Cell anti-proliferation experiment (CTG); type: cell-based; conditions: Homo sapiens, PC-9, 72 h, PC-9 (EGFR exon 19 deletion)
Source text: (§1) H1975 has an EGFR: T790M/L858R double mutation, PC-9 has an EGFR exon 19 deletion, and HCC827 has an exon 19 deletion mutation. Baf3-19del- T790M -C797S (Baf3-DTC) is a stable Ba/F3 clone expressing exogenous EGFR gene bearing T790M, C797S, and […] triple amino acid mutations, purchased from KYinno. Baf3-L858R-T790M - C797S (Baf3-LTC) is a stable Ba/F3 clone expressing exogenous EGFR gene bearing […], T790M, and C797S triple mutations, purchased from KYinno. A549 is a wild-type EGFR, purchased from Nanjing Kebai Biotechnology. A431 is a wild-type EGFR, purchased from Shanghai Xinyu Biotechnology. CellCounting-Lite2.0, Trypsin EDTA, 37°C CO2 incubator, cell counter, EnVision Serial No. 1050454.
(§2) • A) Digested logarithmic phase cells with Trypsin EDTA, added culture medium to stop the reaction, and mixing well with a pipette to prepare a cell suspension. • B) Used Vi-cell to determine cell concentration, and prepared a suspension of 15,000-25,000 cells per milliliter according to the experimental purpose and cell characteristics. • C) After prepared the cell suspension, mixed it gently and added 100 µL to each well, so that the cell density to be tested is 1500-2500 per well.
(§3) • A) Weighed approximately 2 mg the compound and calculated the required volume of DMSO according to the formula: Compound mass (mg) * Compound purity (%) / Compound molecular weight * 1000. • B) Placed the inoculated cell culture plate into an incubator and incubated for about 24 hours. Then added compounds of varying concentrations. • C) Diluted the 10mM compound stock solution to […] with culture medium, and added the […] compound solution to the second column of the deep well plate in sequence, and added […] culture medium containing 0.5% DMSO to the third to eleventh columns. • D) Gradient dilution: Taked 125 µL solution from the second column and added it to the third column, mix well; then taked 125 µL solution from the third column and added it to the fourth column, repeated this operation until the tenth column. • E) Used a multichannel pipette, aspirated 25 µL the compound from the deep-well plate and added it to a 96-well culture plate. Repeated this process three times for each compound on the 96-well plate. This will ultimately create a concentration gradient of up to 10,000 nM at a 1:4 ratio on the 96-well plate.
(§4) • A) The effects of the compound were observed under an inverted microscope after the 96-well plate was incubated in an incubator for 72 hours. • B) Added 25 µL CTG solution to each well, placed on a shaker for 10 minutes, and read the […] of each well.
(§5) Calculate the % Cell Viability using the following formula: %Cell Viability = 100% × (Lum_Sample−Lum_LC)/(Lum_HC−Lum_LC) [formula] • Lum_HC: Cell readings from the 0.1% DMSO control group • Lum_Sample: Cell readings with added compound • Lum_LC: Blank culture medium reading
(§6) The IC50 value was obtained by curve fitting using GraphPad Prism 8 software.

[3] = test system: A431; experiment: Cell anti-proliferation experiment (CTG); type: cell-based; conditions: Homo sapiens, A-431, 72 h, A431 (wild-type EGFR)
Source text: as §1, §2, §3, §4, §5, §6

[4] = test system: Baf3-L858R-T790M - C797S (Baf3-LTC); experiment: Cell anti-proliferation experiment (CTG); type: cell-based; conditions: 72 h
Source text: as §1, §2, §3, §4, §5, §6

[5] = test system: Baf3-19del- T790M -C797S (Baf3-DTC); experiment: Cell anti-proliferation experiment (CTG); type: cell-based; conditions: 72 h
Source text: as §1, §2, §3, §4, §5, §6

[6] = test system: H1975; experiment: Cell anti-proliferation experiment (CTG); type: cell-based; conditions: Homo sapiens, NCI-H1975, 72 h, H1975 (EGFR T790M/L858R)
Source text: as §1, §2, §3, §4, §5, §6

[7] = test system: HCC827; experiment: Cell anti-proliferation experiment (CTG); type: cell-based; conditions: Homo sapiens, HCC827, 72 h, HCC827 (exon 19 deletion)
Source text: as §1, §2, §3, §4, §5, §6

[8] = test system: A549; experiment: Cell anti-proliferation experiment (CTG); type: cell-based; conditions: Homo sapiens, A549, 72 h, A549 (wild-type EGFR)
Source text: as §1, §2, §3, §4, §5, §6

SMILES | HL [1] | AUC(0-inf) ([1]; rat) | AUC(0-t) ([1]; rat) | Cmax ([1]; rat) | MRT last ([1]; rat) | Tmax ([1]; rat) | IC50 ([2]; class symbol) | IC50 ([3]; class symbol) | IC50 ([4]; class symbol) | IC50 ([5]; class symbol) | IC50 ([6]; class symbol) | IC50 ([7]; class symbol) | IC50 ([8]; class symbol) | IC50 ([2]; number after the class symbol) | IC50 ([3]; number after the class symbol) | IC50 ([4]; number after the class symbol) | IC50 ([5]; number after the class symbol) | IC50 ([6]; number after the class symbol) | IC50 ([7]; number after the class symbol) | IC50 ([8]; number after the class symbol)
CCc1cc(Nc2ncc(Cl)c(Nc3ccccc3P(C)(C)=O)n2)c(OC)cc1N1CC2(CCN(C(=O)CN3CCC(c4cc5c(cc4F)c(N4CCC(=O)NC4=O)nn5C)CC3)CC2)C1 [TC-093] | 3.43 h | 4930 ng·h/mL | 5030 ng·h/mL | 665 ng/mL | 5.98 h | 4 h | 0.1 to 1 µM | > 1 µM | 0.01 to 0.1 µM | 0.01 to 0.1 µM | 0.01 to 0.1 µM | 0.01 to 0.1 µM | > 1 µM |  |  |  |  |  |  | 
COc1cc(N2CCN(C(=O)CN3CCC(c4cc5c(cc4F)c(N4CCC(=O)NC4=O)nn5C)C(F)(F)C3)CC2)c(Cl)cc1Nc1ncc(Br)c(Nc2ccccc2P(C)(C)=O)n1 (centres unmarked) [TC-138] |  |  |  |  |  |  | 0.1 to 1 µM | > 1 µM | < 0.01 µM | < 0.01 µM | 0.01 to 0.1 µM | 0.1 to 1 µM | > 1 µM |  |  |  |  |  |  | 
CCc1cc(Nc2ncc(Br)c(Nc3ccccc3P(C)(C)=O)n2)c(OC)cc1N1CCN(C(=O)CN2CCC(c3cc4c(cc3F)c(N3CCC(=O)NC3=O)nn4-c3ccccc3)C(F)(F)C2)CC1 (centres unmarked) [TC-150] |  |  |  |  |  |  | > 1 µM | > 1 µM | 0.01 to 0.1 µM | 0.01 to 0.1 µM | 0.1 to 1 µM | 0.1 to 1 µM | > 1 µM |  |  |  |  |  |  | 
COc1cc(N2CCN(C(=O)CN3CCC(c4cc5c(cc4F)c(N4CCC(=O)NC4=O)nn5C)C(F)(F)C3)CC2)ccc1Nc1ncc(Cl)c(Nc2ccccc2P(C)(C)=O)n1 (centres unmarked) [TC-211] |  |  |  |  |  |  | 0.1 to 1 µM | > 1 µM | 0.01 to 0.1 µM | 0.01 to 0.1 µM | 0.1 to 1 µM | 0.1 to 1 µM | > 1 µM |  |  |  |  |  |  | 
CCc1cc(Nc2ncc(Cl)c(Nc3ccccc3P(C)(C)=O)n2)c(OC)cc1N1CCN(C(=O)CN2CCC(c3ccc4c(N5CCC(=O)NC5=O)nn(C)c4c3)C(F)(F)C2)CC1 (centres unmarked) [TC-215] |  |  |  |  |  |  | 0.1 to 1 µM | > 1 µM | < 0.01 µM | < 0.01 µM | 0.1 to 1 µM | 0.1 to 1 µM | 0.1 to 1 µM | 0.647 µM | 1.07 µM | 0.0053 µM | 0.0056 µM | 0.164 µM | 0.227 µM | 0.326 µM
COc1cc(N2CCN(C(=O)CN3CCC(c4cc5c(cc4F)c(N4CCC(=O)NC4=O)nn5C)C(F)(F)C3)CC2)c(-c2cnn(C)c2)cc1Nc1ncc(Br)c(Nc2ccccc2P(C)(C)=O)n1 (centres unmarked) [TC-224] |  |  |  |  |  |  | 0.1 to 1 µM | 0.1 to 1 µM | < 0.01 µM | < 0.01 µM | 0.01 to 0.1 µM | 0.01 to 0.1 µM | 0.1 to 1 µM |  |  |  |  |  |  | 
CCc1cc(Nc2ncc(Cl)c(Nc3ccccc3P(C)(C)=O)n2)c(OC)cc1N1CCC2(CC1)CN(C(=O)CN1CCC(c3cc4c(cc3F)c(N3CCC(=O)NC3=O)nn4C)C(F)(F)C1)C2 (centres unmarked) [TC-225] |  |  |  |  |  |  | 0.1 to 1 µM | > 1 µM | 0.01 to 0.1 µM | 0.01 to 0.1 µM | 0.1 to 1 µM | 0.1 to 1 µM | 0.1 to 1 µM | 0.432 µM | 1.61 µM | 0.0167 µM | 0.0135 µM | 0.289 µM | 0.576 µM | 0.961 µM
CCc1cc(Nc2ncc(Br)c(Nc3ccccc3P(C)(C)=O)n2)c(OC)cc1N1CCC2(CC1)CN(C(=O)CN1CCC(c3cc4c(cc3F)c(N3CCC(=O)NC3=O)nn4C)C(F)(F)C1)C2 (centres unmarked) [TC-226] |  |  |  |  |  |  | 0.1 to 1 µM | > 1 µM | < 0.01 µM | < 0.01 µM | 0.1 to 1 µM | 0.1 to 1 µM | 0.1 to 1 µM |  |  |  |  |  |  | 
CCc1cc(Nc2ncc(Br)c(Nc3ccc(OC4CC4)cc3P(C)(C)=O)n2)c(OC)cc1N1CC2(CCN(C(=O)CN3CCC(c4cc5c(cc4F)c(N4CCC(=O)NC4=O)nn5C)C(F)(F)C3)CC2)C1 (centres unmarked) [TC-232] |  |  |  |  |  |  | 0.1 to 1 µM | > 1 µM | < 0.01 µM | < 0.01 µM | 0.01 to 0.1 µM | 0.01 to 0.1 µM | > 1 µM |  |  |  |  |  |  | 
